The subject of series [1] is vancomycin-resistant (Vanco^r) E. faecium and E. faecalis. Briefly: Susceptibility of vancomycin-resistant enterococci, agar-dilution MIC. Type of series: cell-based. The settings on record: for Geometric Mean MIC, Vanco^r Strains: n = 25 strains, end points read after 24-hour incubation. The procedure:
(§1) End points were read after 24-hour incubation. The ratio was calculated by dividing the mean MIC of the compound against the vancomycin-resistant strains by the mean MIC of the compound against the vancomycin-susceptible strains.

Series [2] has as its system Enterococcus faecium X66. Briefly: MIC, standard agar-dilution assay. Type of series: cell-based. The procedure:
(§2) The formula I compounds have in vitro and in vivo activity against Gram-positive pathogenic bacteria. The MIC's were determined using a standard agar-dilution assays.
^b Formerly Streptococcus faecium X66

For series [3], the system named is Enterococcus faecalis 2041. Briefly: MIC, standard agar-dilution assay. Type of series: cell-based. The procedure: as §2
^c Formerly Streptococcus faecalis 2041

Series [4] concerns Streptococcus pyogenes. The series can be described thus: In vivo activity, experimentally infected mice (ED50). The settings on record: Streptococcus pyogenes infection; doses administered subcutaneously to mice 1 and 4 hours postinfection.
Series [5] concerns Staphylococcus aureus S13E. Type of series: cell-based. The procedure: as §2
Series [6] relates to Streptococcus pneumoniae Park 1. Type of series: cell-based. The procedure:
as §2

The test system of series [7] is six vancomycin-susceptible strains of staphylococci and enterococci. Briefly: Effect of human serum on the MIC, serial dilution assay. To be noted: for MIC determined in absence of added serum: absence (-) of human serum; for ratio of the MIC in the presence of added serum to the MIC in the absence of added serum: indication of the degree of serum binding; for MIC determined in presence of human serum: broth supplemented with human serum to 40%. Type of series: cell-based. From the text: Another important property of the formula I compounds is the low binding of the compounds to serum proteins when compared with other glycopeptide antibiotics. […] The ratio of the MIC measured in the presence of added serum to the MIC measured in the absence of added serum ("ratio") is an indication of the degree of serum binding. […] A ratio that is greater than one, for example about ten, indicates the compound has a high degree of serum binding.

Series [8] relates to Staphylococcus aureus NRRL X1.1. Briefly: MIC, standard agar-dilution assay. Type of series: cell-based. The procedure: as §2
Series [9] concerns Streptococcus pyogenes C203. Briefly: MIC, standard agar-dilution assay. Type of series: cell-based. The protocol:
as §2

The test system of series [10] is Klebsiella pneumoniae X68. The series can be described thus: MIC, standard agar-dilution assay. Type of series: cell-based. The protocol: as §2
Series [11] relates to Klebsiella pneumoniae X26. The series can be described thus: MIC, standard agar-dilution assay. Type of series: cell-based. The protocol: as §2
Series [12] deals with Haemophilus influenzae 76. Briefly: MIC, standard agar-dilution assay. Type of series: cell-based. The procedure:
as §2

Series [13] relates to Escherichia coli EC14. Briefly: MIC, standard agar-dilution assay. Type of series: cell-based. The protocol:
as §2

Series [14] concerns Escherichia coli TEM. The series can be described thus: MIC, standard agar-dilution assay. Type of series: cell-based. The procedure: as §2
Series [15] relates to Klebsiella pneumoniae KAE. The series can be described thus: MIC, standard agar-dilution assay. Type of series: cell-based. The protocol: as §2
In series [16] the test system is Escherichia coli N10. The series can be described thus: MIC, standard agar-dilution assay. Type of series: cell-based. The procedure: as §2
Series [17] concerns Staphylococcus epidermidis EPI270. Briefly: MIC, standard agar-dilution assay. Type of series: cell-based. The protocol: as §2
Series [18] relates to Haemophilus influenzae C.L. Briefly: MIC, standard agar-dilution assay. Type of series: cell-based. The procedure: as §2
Series [19] has as its system Staphylococcus aureus X400. The series can be described thus: MIC, standard agar-dilution assay. Type of series: cell-based. The procedure: as §2
Series [20] concerns Staphylococcus aureus V41. Briefly: MIC, standard agar-dilution assay. Type of series: cell-based. The procedure: as §2
In series [21] the test system is Staphylococcus epidermidis 222. Briefly: MIC, standard agar-dilution assay. Type of series: cell-based. The procedure:
as §2

The test system of series [22] is Streptococcus pneumoniae. Briefly: In vivo activity, experimentally infected mice (ED50). The settings on record: Streptococcus pneumoniae infection; doses administered subcutaneously to mice 1 and 4 hours postinfection.
Series [23] relates to vancomycin-susceptible (Vanco^s) E. faecium and E. faecalis. Briefly: Susceptibility of vancomycin-susceptible enterococci, agar-dilution MIC. Type of series: cell-based. The settings on record: n = 34 strains; end points read after 24-hour incubation. The procedure: as §1
For series [24], the system named is Staphylococcus aureus. Briefly: In vivo activity, experimentally infected mice (ED50). The settings on record: Staphylococcus aureus infection; doses administered subcutaneously to mice 1 and 4 hours postinfection.
For series [25], the system named is human serum protein. The settings on record: cited from earlier work.

Converted amounts (≈) assume the structure as drawn.

As for `CNC(CC(C)C)C(=O)NC1C(=O)NC(CC(N)=O)C(=O)NC2C(=O)NC3C(=O)NC(C(=O)NC(C(=O)O)c4cc(O)cc(O)c4-c4cc3ccc4O)C(OC3CC(C)(N)C(O)C(C)O3)c3ccc(c(Cl)c3)Oc3cc2cc(c3OC2OC(CO)C(O)C(O)C2OC2CC(C)(NCc3ccc(Br)cc3)C(O)C(C)O2)Oc2ccc(cc2Cl)C1O` (centres unmarked) [Compound 58], the “Ratio (mean MIC vancomycin-resistant strains / mean MIC vancomycin-susceptible strains)” value in series [1] is recorded as 4.6. Besides, the “Geometric Mean MIC, Vanco^r Strains” value in series [1] came out at 3.1 µg/mL. The MIC entry in series [2] was “.25 µg/mL”; in [3] it was “.25 µg/mL”; in series [5], 1 µg/mL (≈ 0.568 µM); in series [6], “.125 µg/mL”; in series [8], “.5 µg/mL”; in series [9], “.125 µg/mL”. Further, the MIC in series [10], in [11], in series [12], in series [13], in series [14] and in series [15] was over 128 µg/mL in each case. The MIC in [16] was over 128 µg/mL; in series [17], 2 µg/mL (≈ 1.14 µM); in series [18], over 128 µg/mL; in [19], 1 µg/mL (≈ 0.568 µM); in series [20], “.5 µg/mL”; in series [21], “.5 µg/mL”. Also, the values for the ED50 in series [4], in series [22] and in series [24] were 0.05 mg/kg/2, 0.08 mg/kg/2 and 0.38 mg/kg/2, respectively. Also, in series [7], the “MIC determined in absence of added serum” value was 0.43. The “ratio of the MIC in the presence of added serum to the MIC in the absence of added serum” value (from here on “ratio of the MIC”) in [7] amounted to 2.3. Moreover, the “MIC determined in presence of human serum” value (“MIC determined in presence” for short) in [7] worked out at 1.0. For the same compound, in series [23], the “Geometric Mean MIC, Vanco^s Strains” value was 0.67 µg/mL.
Regarding `CN[C@H](CC(C)C)C(=O)N[C@H]1C(=O)N[C@@H](CC(N)=O)C(=O)N[C@H]2C(=O)N[C@H]3C(=O)N[C@H](C(=O)N[C@H](C(=O)O)c4cc(O)cc(O)c4-c4cc3ccc4O)[C@H](O)c3ccc(c(Cl)c3)Oc3cc2cc(c3O[C@@H]2O[C@H](CO)[C@@H](O)[C@H](O)[C@H]2O[C@H]2C[C@](C)(N)[C@H](O)[C@H](C)O2)Oc2ccc(cc2Cl)[C@H]1O` [vancomycin], in [25], the “level of human serum protein binding” value is 55%.
Turning to Teicoplanin [reference compound], in [7], the “MIC determined in absence of added serum” value is listed as 0.25, the “ratio of the MIC” value came out at 12.6 and the “MIC determined in presence” value is listed as 3.8. In series [25], the “level of human serum protein binding” value was “about 90%”.
Regarding `CCCCCCCCN[C@@]1(C)C[C@H](O[C@H]2[C@H](Oc3c4cc5cc3Oc3ccc(cc3Cl)[C@@H](O[C@H]3C[C@](C)(N)[C@@H](O)[C@H](C)O3)[C@@H]3NC(=O)[C@H](NC(=O)[C@@H]5NC(=O)[C@H](CC(N)=O)NC(=O)[C@H](NC(=O)[C@@H](CC(C)C)NC)[C@H](O)c5ccc(c(Cl)c5)O4)c4ccc(O)c(c4)-c4c(O)cc(O)cc4[C@@H](C(=O)O)NC3=O)O[C@H](CO)[C@@H](O)[C@@H]2O)O[C@@H](C)[C@@H]1O` [Compound 38], the “Ratio (mean MIC vancomycin-resistant strains / mean MIC vancomycin-susceptible strains)” value in series [1] turned out to be 2.9. In series [1], the “Geometric Mean MIC, Vanco^r Strains” value amounted to 2.1 µg/mL. The MIC result in series [2] was “.25 µg/mL”; in series [3], “.25 µg/mL”; in series [5], “.5 µg/mL”; in [6], “.25 µg/mL”; in series [8] it was “.5 µg/mL”; in series [9] it was “.06 µg/mL”. Besides, the MIC in series [10], in series [11], in [12], in series [13], in series [14] and in series [15] was over 128 µg/mL throughout. Besides, the MIC in series [16] was over 128 µg/mL; in series [17] it was 1 µg/mL (≈ 0.587 µM); in series [18] it was over 128 µg/mL; in [19], 1 µg/mL (≈ 0.587 µM); in [20], 1 µg/mL (≈ 0.587 µM); in series [21], “.5 µg/mL”. For the same compound, the ED50 stood at 0.11 mg/kg/2 in [4], 0.062 mg/kg/2 in [22] and 0.43 mg/kg/2 in series [24]. The “MIC determined in absence of added serum” value in series [7] is reported as 0.75. For the same compound, in series [7], the “ratio of the MIC” value worked out at 0.58. Also, the “MIC determined in presence” value in [7] is listed as 0.43. For the same compound, the “Geometric Mean MIC, Vanco^s Strains” value in series [23] is 0.73 µg/mL.

The values are drawn from US5591714A, “Derivatives of A82846” (priority 1994, dated 1997).
